Values joined by “and” are separate entries in the source; they are usually repeats but may differ in a detail not shown here. Equal entries are not always repeated. “Also recorded” adds a separate entry of the source.
Assays:
[1] = test system: meropenem-resistant K. pneumonia and E. coli; assay: Checkerboard MIC, all MDR isolates; format: cell-based; details: for some of the strains
Experimental: A checkerboard MIC assay was using the broth dilution method according to CLSI guidelines. […] Dilutions to 4 mg/ml was performed by adding+4.75 ml sterile saline to 0.25 ml of the stock solution, and dilutions to 512 μg/ml was performed by adding 10.9 ml MH-broth to the 4 mg/ml solution. Inoculums of bacterial strains as described in Table 4 were prepared by suspending fresh overnight colonies from 5% horse blood agar were to a turbidity of 0.5 McFarland and further diluted to 1×10^6 CFU/ml in MH-broth. Aliquots of 50 μl of MH-broth were added to each well of polystyrene microtiter plates. […] The plates were incubated at 35° C., 16-20 hours.

[2] = test system: human serum albumin and α1-acid glycoprotein (AGP); details: 500 μM Example 26; HSA and AGP 24:1 up to 140 μM
Experimental: Enzymes in the kit are immobilized at a solid phase. […] Buffer without inhibitor was included as a control. After incubation, the suspensions were centrifuged and diluted 1:10 in 50 mM HEPES buffer pH 7.5 supplemented with 1 μM zinc^2+ and VIM-2 (final concentration 1 nM).

[3] = test system: K. pneumoniae K66-45 and P. aeruginosa K34-7; assay: Microbroth dilution MIC, carbapenem + inhibitor, two resistant clinical isolates; format: cell-based; details: Example 26 25 mg/L, three batches; meropenem and doripenem
Experimental: (§1) • Plate bacterial strain(s) on appropriate media: • Gram-negative bacteria with ESBLs or carbapenemases: green agar plates with 100 mg/L ampicillin • Gram-negative bacteria without β-lactamases: green agar plates • Gram-positive bacteria (Staphylococci and Enterococci): blood agar plates • Incubate o.n. at 37° C. Day 2: Prepare the Bacterial Inoculum: • Prepare a 0.5 McFarland suspension of bacteria in 0.85% NaCl. (Should be used within 15 min of preparation). • Dilute the 0.5 McFarland suspension 1:100 into MH broth. Check the inoculum by diluting the prepared bacterial suspension 1:100 (10 μl bacterial suspension+990 μl 0.85% NaCl). Plate 10 μl of the dilution on MH agar plates (×2). Incubate o.n. at 37° C., count the colonies and calculate the final CFU/ml inoculum in the plate by multiplying the average number of colonies with 10000 and divide by 2. The final inoculum should be between 3-7×10^5 CFU/ml. • Add 50 μl of the prepared bacterial suspension to each well in the microtiter plate except negative growth control. Preparation of Compounds/Antibiotics • Calculate the desired concentration-range and volume of the compounds/antibiotics in the assay. […] Dilute the stock solution in MH broth. Make subsequent 2-fold dilutions in MH broth of the desired concentrations if a concentration range is to be tested (remember the extra dilution factor in the assay plate). Always include extra volume for pipetting. Take into consideration stock solutions that are made in buffers that have an effect on bacterial growth (e.g. DMSO).

[4] = test system: P. aeruginosa 50692172 (NDM-1); assay: Microbroth dilution MIC of meropenem with/without inhibitor; format: cell-based; details: inhibitor 25 mg/L
Experimental: as §1, with “Day 2: Prepare the Bacterial Inoculum: • Prepare a 0.5 McFarland suspension of bacteria in 0.85% NaCl.” left out, “Check the inoculum by diluting the prepared bacterial suspension 1:100 (10 μl bacterial suspension+990 μl 0.85% NaCl).” left out

[5] = test system: P. aeruginosa 50808021 (No MBL); assay: as above; format: cell-based; details: inhibitor 25 mg/L
Experimental: as §1, with “Day 2: Prepare the Bacterial Inoculum: • Prepare a 0.5 McFarland suspension of bacteria in 0.85% NaCl.” left out, “Check the inoculum by diluting the prepared bacterial suspension 1:100 (10 μl bacterial suspension+990 μl 0.85% NaCl).” left out

[6] = test system: K. pneumoniae 50732159 (No MBL); assay: as above; format: cell-based; details: inhibitor 25 mg/L
Experimental: as §1, with “Day 2: Prepare the Bacterial Inoculum: • Prepare a 0.5 McFarland suspension of bacteria in 0.85% NaCl.” left out, “Check the inoculum by diluting the prepared bacterial suspension 1:100 (10 μl bacterial suspension+990 μl 0.85% NaCl).” left out

[7] = biological target: VIM-2 (Escherichia coli, UniProt Q5U7L7); format: biochemical
Experimental: The eluent used was Chelex-treated HEPES 50 mM buffer, pH 7.5. […] In all experiments, 16 aliquots of 250 μL were taken from the PD-10 column runsout and enzyme activity was analysed. Enzyme activity was measured by adding Nitrocefin as a reporter substrate (final concentration of 50 μM).
To investigate if more extreme time-dependent and concentration-dependent conditions could restore enzyme activity, aliquots having final concentrations of 30 nM column-treated enzyme and 1000 μM Zn^2+ on ice and at room temperature over prolonged time.

[8] = Solution stability on storage, measured indirectly by MIC; format: physicochemical; details: solution stored at 2-8° C.; MIC at 25 mg/L inhibitor
From the text: P. aeruginosa harboring VIM-2 and K. pneumonia bearing NDM-1 was used as two indicator strains.

[9] = test system: resistant gram-negative MBL-based bacteria; assay: MICx: adjuvant concentration giving carbapenem MIC ≤ 2 mg/L; format: cell-based; details: lowest concentration of compound X that results in a MIC value of ≤ 2 mg/L for carbapenem antibiotics
In short: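 Broth microdilution in MH broth; 0.5 McFarland suspension diluted 1:100 to a final inoculum of 3-7×10^5 CFU/ml. Compounds tested as 2-fold dilutions in MH broth. Carbapenemase/ESBL strains were pre-grown overnight at 37 °C on agar containing 100 mg/L ampicillin.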

[10] = test system: strains producing Klebsiella pneumoniae carbapenemases (KPC); assay: Adjuvant activity with a carbapenem against KPC-producing strains; format: cell-based
[11] = test system: P. aeruginosa K34-7 (VIM-2); assay: Microbroth dilution MIC of carbapenem with/without inhibitor; format: cell-based; details: Example 26 25 mg/L
In short: (§2)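 Broth microdilution in MH broth with 2-fold compound/antibiotic dilution series. Inoculum from a 0.5 McFarland suspension diluted 1:100, final 3-7×10^5 CFU/ml confirmed by colony count. Strains pre-grown overnight at 37° C, ampicillin 100 mg/L plates for ESBL/carbapenemase producers.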

[12] = test system: K. pneumoniae K66-45 (NDM-1); assay: as above; format: cell-based
In short: as §2

[13] = biological target: rH glyoxylase II (Homo sapiens, UniProt Q16775); assay: Interaction with zinc-containing human enzyme; format: biochemical; details: 62.5-500 μM, 30 min, 25° C.
[14] = test system: E. coli K71-77 (NDM-1); assay: Microbroth dilution MIC of meropenem with/without inhibitor; format: cell-based
Experimental: as §1
(§3) This experimental design was used for the results in Tables 2-6 below.

[15] = test system: E. coli 50639799 (VIM-1); assay: as above; format: cell-based
Experimental: as §1, §3

[16] = test system: K. pneumoniae A3-81 (VIM-1); assay: as above; format: cell-based
Experimental: as §1, §3

CN(C[C@H](O)[C@@H](O)[C@H](O)[C@H](O)CO)C(=O)c1ccc(CN(Cc2ccccn2)Cc2ccccn2)nc1 [Example 26, 6-((bis(pyridin-2-ylmethyl)amino)methyl)-N-methyl-N-((2S,3R,4R,5R)-2,3,4,5,6-pentahydroxyhexyl)nicotinamide]
amplification of the effect of meropenem [1]: > 1000 times | effect of protein binding on inhibition of VIM-2 [2]: protein binding is not affecting the inhibitory activity | factor of potentiation of carbapenems [3]: 32-256 times | Meropenem activity in presence of inhibitor [4]: 4 mg/L | Meropenem activity in presence of inhibitor [5]: >64 mg/L | Meropenem activity in presence of inhibitor [6]: 32 mg/L | enzyme activity restored ([7]; 15 nM impaired enzyme spiked with ZnSO4 0-100 μM): 40% | residual enzyme activity ([7]; 50 nM VIM-2 + 140 mg/L Example 26, 1 hour on ice, PD-10 eluate fraction 5): 33% | irreversibility of VIM-2 inhibition ([7]; purified VIM-2, PD-10 column): irreversibly inhibits VIM-2; also recorded: irreversibly inhibited | storage time at which a loss of activity was observed [8]: > 8 months | MICx [9]: 31 µM | adjuvant activity with a carbapenem against KPC-producing strains [10]: does not show activity | MIC of doripenem (DOR) + Example 26 [11]: 1 µg/mL | MIC of doripenem (DOR) + Example 26 ([12]; Example 26 25 mg/L, K. pneumoniae K66-45 NDM-1): 0.25 mg/L and 0.125 mg/L (2×) | MIC ([12]; Klebsiella pneumoniae, inhibitor 31.25 μM, 50 μM and 100 μM, K. pneumoniae K66-45, read-out: MIC of MEM in the presence of inhibitor): 0.125 µg/mL | MIC of meropenem ([12]; inhibitor 31.25 μM, K. pneumoniae K66-45 NDM-1): 0.125 | MIC of meropenem ([12]; inhibitor 50 μM, K. pneumoniae K66-45 NDM-1): 0.125 | interaction with rH glyoxylase II [13]: does not interact with rH glyoxylase II

C[C@@H](O)[C@H]1C(=O)N2C(C(=O)O)=C(S[C@@H]3CN[C@H](C(=O)N(C)C)C3)[C@H](C)[C@H]12 [meropenem, reference compound]
Meropenem activity without inhibitor [14]: 1 to 8 mg/L | Meropenem activity without inhibitor [15]: 8 to 32 mg/L | Meropenem activity without inhibitor [16]: 64 to 256 mg/L

— patent US11649222B2, “Compounds” (UNIVERSITETET I OSLO, priority 2016, dated 2023)
